Reference: US20220144823A1, “PYRAZOLOPYRIDINE DERIVATIVES AS INHIBITORS OF PASK” (Galapagos NV, priority 2019, published 2022)

Columns and labels:
[1] = target: T1, human PASK (Homo sapiens, UniProt Q96RG2); test: 33P radioactive kinase assay; type: biochemical; conditions: 33P radioactive PASK kinase assay, 10 μM ATP, ZIPtide 1 μM
T1 construct: purchased ThermoFisher Scientific PR7013A
Description: The principle of the ^33P radioactive kinase assay consists in measuring the incorporated ^33P into the ZIPtide peptide substrate when phosphorylated by human PASK using [^33P]-[…]-ATP and ATP, which correlates with kinase activity.
The test compounds are prepared as a serial dilution of 10 point dose responses with 1/5 dilution steps in 100% DMSO starting from 0.2 or 2 mM highest concentration, diluted 1/20 in water and 5 μL is transferred to the assay plates (Greiner, Cat #651201).
(§1) 1% DMSO and 10 μM staurosporine final concentrations are used respectively as negative and positive controls.
11 μL of enzyme-substrate mixture is added on the assay plates. The reactions are started by adding 9 μL ATP mixture, consisting of non-labeled and ^33P-labeled ATP, on the assay plates.
The reactions are stopped by adding 25 μL phosphoric acid (150 mM) to the reactions.
The completely terminated kinase reactions are transferred using a harvester on pre-wetted UniFilter-96 plates (UniFilter-96 GF/B, PerkinElmer Inc., Cat #6005177).
After harvesting the kinase reactions, the filter plates are washed 6 times with phosphoric acid (75 mM). The back of the UniFilter-96 plates are sealed and 40 μL MicroScint-20 (PerkinElmer Inc., Cat #6013621) is added to each well. The top of each plate is sealed with TopSeal-A (PerkinElmer Inc., Cat #6050185). Read-out is performed with a TopCount instrument (PerkinElmer Inc.).
Raw data are generated following the read-out performed on the TopCount, used to calculate percentage inhibition (PIN) values and plotted to generate dose response curves and derive the average half maximal inhibitory concentrations (IC50) reported in Table VI.

[2] = target: T1, human PASK; test: ADP-Glo kinase assay; type: biochemical; conditions: ADPGlo PASK kinase assay, 25 μM ATP, ZIPtide 25 μM
Description: The ADP-Glo™ kinase assay is a luminescent technology assay which measures the ADP formed from a kinase reaction. In this specific study, the kinase reactions consisted of the phosphorylation of the ZIPtide peptide substrate by human recombinant PASK. In a second step the kinase reaction is terminated and all the remaining ATP is depleted. In a final step the ADP is converted into ATP and this newly synthesized ATP is measured by using a luciferase/luciferin reaction. The generated light is measured using an Envision plate reader, wherein the luminescent signal obtained positively correlates with the kinase activity.
The test compounds are prepared as a serial dilution of 10 point dose responses with 1/5 dilution steps in 100% DMSO starting from 2 mM highest concentration, diluted 1/20 in water and 1 μL is transferred to the assay plates (PerkinElmer Inc., Cat #6007290).
as §1
2 μL enzyme-substrate mixture is added to the assay plates.
The reaction is started by adding 2 μL diluted ATP on the assay plates immediately after addition of the enzyme-substrate mixture to the compound. Plates are centrifuged for a few seconds at 1000 rpm and gently shaken for 2 min followed by an incubation at RT for 120 min.
The reactions are stopped and the unconsumed ATP is depleted by adding 5 μL ADP-Glo Reagent (Promega, Cat #V912B) to the reaction. The plates are centrifuged for a few seconds at 1000 rpm and incubated at RT for 40 min (ATP depletion).
The ADP is converted to ATP and luciferase and luciferin is introduced to detect ATP by adding 10 μL Kinase Detection Reagent (Promega, Cat #V913B+V914B) to the reaction. The plates are centrifuged for a few seconds at 1000 rpm and incubated at RT for 30 min (ADP detection).
Luminescence is measured on an Envision plate reader (PerkinElmer Inc.).
Raw data are generated following the read-out performed on the Envision plate reader, used to calculate percentage inhibition (PIN) values and plotted to generate dose response curves and derive the average half maximal inhibitory concentrations (IC50) reported in Table VIII.

T1 sequence (Q96RG2 whole entry): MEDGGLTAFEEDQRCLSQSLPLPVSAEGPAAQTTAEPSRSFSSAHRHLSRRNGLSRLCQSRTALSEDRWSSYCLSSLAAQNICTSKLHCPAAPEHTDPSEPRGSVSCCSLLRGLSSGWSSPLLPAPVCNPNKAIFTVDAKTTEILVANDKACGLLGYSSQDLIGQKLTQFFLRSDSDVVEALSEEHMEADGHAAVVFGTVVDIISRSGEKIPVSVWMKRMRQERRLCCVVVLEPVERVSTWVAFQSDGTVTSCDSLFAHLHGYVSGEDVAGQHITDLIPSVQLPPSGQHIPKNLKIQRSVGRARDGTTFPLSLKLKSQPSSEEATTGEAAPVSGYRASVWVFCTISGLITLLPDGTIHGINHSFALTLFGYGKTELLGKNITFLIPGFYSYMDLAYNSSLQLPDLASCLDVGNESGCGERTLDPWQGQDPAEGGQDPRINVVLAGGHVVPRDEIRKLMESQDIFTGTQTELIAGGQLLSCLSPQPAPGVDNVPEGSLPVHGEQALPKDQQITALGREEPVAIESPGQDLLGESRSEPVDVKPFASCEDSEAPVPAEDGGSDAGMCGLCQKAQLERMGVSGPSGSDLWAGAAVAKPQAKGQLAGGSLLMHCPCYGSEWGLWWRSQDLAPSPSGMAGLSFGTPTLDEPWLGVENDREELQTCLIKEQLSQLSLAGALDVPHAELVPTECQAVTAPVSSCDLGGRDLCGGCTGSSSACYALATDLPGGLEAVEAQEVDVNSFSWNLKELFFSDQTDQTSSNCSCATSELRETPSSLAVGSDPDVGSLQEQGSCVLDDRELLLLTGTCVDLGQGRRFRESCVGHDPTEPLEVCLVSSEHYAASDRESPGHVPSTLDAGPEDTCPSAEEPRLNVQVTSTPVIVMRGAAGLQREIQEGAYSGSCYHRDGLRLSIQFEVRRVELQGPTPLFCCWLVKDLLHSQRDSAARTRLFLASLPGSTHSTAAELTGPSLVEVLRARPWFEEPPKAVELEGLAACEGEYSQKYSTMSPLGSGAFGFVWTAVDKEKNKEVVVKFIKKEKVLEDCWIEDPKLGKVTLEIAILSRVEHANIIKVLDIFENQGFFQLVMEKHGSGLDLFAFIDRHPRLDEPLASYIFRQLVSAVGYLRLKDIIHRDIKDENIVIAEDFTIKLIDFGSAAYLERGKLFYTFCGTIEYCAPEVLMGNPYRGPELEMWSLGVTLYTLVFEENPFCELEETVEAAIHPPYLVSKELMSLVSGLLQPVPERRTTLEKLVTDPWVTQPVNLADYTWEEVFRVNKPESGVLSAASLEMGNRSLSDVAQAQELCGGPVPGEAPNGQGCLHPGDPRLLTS

Structure (SMILES)	IC50 [1] [nM]	IC50 [2] [nM]
Cn1cc(-c2cnn3ccc(-c4cc(C(=O)O)co4)cc23)cn1 [Cpd 3, 5-[3-(1-methylpyrazol-4-yl)pyrazolo[1,5-a]pyridin-5-yl]furan-3-carboxylic acid]	10 to 100	–
COC(=O)c1coc(-c2ccn3ncc(-c4c(C)nn(C)c4C)c3c2)c1 [Cpd 5, methyl 5-[3-(1,3,5-trimethylpyrazol-4-yl)pyrazolo[1,5-a]pyridin-5-yl]furan-3-carboxylate]	10 to 100	–
Cc1noc(C)c1-c1cnn2ccc(-c3ncc(C(=O)O)o3)cc12 [Cpd 24, 2-[3-(3,5-dimethylisoxazol-4-yl)pyrazolo[1,5-a]pyridin-5-yl]oxazole-5-carboxylic acid]	0.01 to 10	–
Cn1cc(-c2cnn3ccc(-c4cc(C(=O)O)c(C(=O)Nc5ccccc5)o4)cc23)cn1 [Cpd 1, 5-[3-(1-methylpyrazol-4-yl)pyrazolo[1,5-a]pyridin-5-yl]-2-(phenylcarbamoyl) furan-3-carboxylic acid]	0.01 to 10	–
Cc1nn(C)c(C)c1-c1cnn2ccc(-c3cc(C(=O)NS(C)(=O)=O)co3)cc12 [Cpd 21, N-methylsulfonyl-5-[3-(1,3,5-trimethylpyrazol-4-yl)pyrazolo[1,5-a]pyridin-5-yl]furan-3-carboxamide]	10 to 100	–
Cc1nn(C)cc1-c1cnn2ccc(-c3cc(C(=O)O)co3)cc12 [Cpd 14, 5-[3-(1,3-dimethylpyrazol-4-yl)pyrazolo[1,5-a]pyridin-5-yl]furan-3-carboxylic acid]	0.01 to 10	0.01 to 10
COc1nc(-c2ccn3ncc(-c4c(C)nn(C)c4C)c3c2)sc1C(N)=O [Cpd 11, 4-methoxy-2-[3-(1,3,5-trimethylpyrazol-4-yl)pyrazolo[1,5-a]pyridin-5-yl]thiazole-5-carboxamide]	0.01 to 10	–
Cc1noc(C)c1-c1cnn2ccc(-c3cc(C(=O)O)c(C)o3)cc12 [Cpd 19, 5-[3-(3,5-dimethylisoxazol-4-yl)pyrazolo[1,5-a]pyridin-5-yl]-2-methyl-furan-3-carboxylic acid]	0.01 to 10	–
Cc1nn(C)c(C)c1-c1cnn2ccc(-c3cc(C(=O)NS(=O)(=O)C4CC4)co3)cc12 [Cpd 22, N-cyclopropylsulfonyl-5-[3-(1,3,5-trimethylpyrazol-4-yl)pyrazolo[1,5-a]pyridin-5-yl]furan-3-carboxamide]	10 to 100	–
Cc1noc(C)c1-c1cnn2ccc(-c3nc(C(=O)O)co3)cc12 [Cpd 20, 2-[3-(3,5-dimethylisoxazol-4-yl)pyrazolo[1,5-a]pyridin-5-yl]oxazole-4-carboxylic acid]	10 to 100	100 to 500
CCOC(=O)c1coc(-c2ccn3ncc(-c4c(C)nn(C)c4C)c3c2)c1 [Cpd 6, ethyl 5-[3-(1,3,5-trimethylpyrazol-4-yl)pyrazolo[1,5-a]pyridin-5-yl]furan-3-carboxylate]	10 to 100	–
Cc1nn(C)c(C)c1-c1cnn2ccc(-c3cc(C(=O)OCC(=O)N(C)C)co3)cc12 [Cpd 7, [2-(dimethylamino)-2-oxo-ethyl] 5-[3-(1,3,5-trimethylpyrazol-4-yl)pyrazolo[1,5-a]pyridin-5-yl]furan-3-carboxylate]	10 to 100	–
Cc1nn(C)c(C)c1-c1cnn2ccc(-c3cc(C(=O)O)c(C4CC4)o3)cc12 [Cpd 15, 2-cyclopropyl-5-[3-(1,3,5-trimethylpyrazol-4-yl)pyrazolo[1,5-a]pyridin-5-yl]furan-3-carboxylic acid]	0.01 to 10	0.01 to 10
Cc1nn(C)c(C)c1-c1cnn2ccc(-c3cc(C(=O)O)c(C)o3)cc12 [Cpd 16, 2-methyl-5-[3-(1,3,5-trimethylpyrazol-4-yl)pyrazolo[1,5-a]pyridin-5-yl]furan-3-carboxylic acid]	0.01 to 10	–

More lines, now with the values ahead:

IC50 [1] [nM]	IC50 [2] [nM]	Structure (SMILES)
0.01 to 10	–	Cc1nn(C(C)C)c(C)c1-c1cnn2ccc(-c3nc(C(F)F)c(C(=O)O)s3)cc12 [Cpd 46, 4-(difluoromethyl)-2-[3-(1-isopropyl-3,5-dimethyl-pyrazol-4-yl)pyrazolo[1,5-a]pyridin-5-yl]thiazole-5-carboxylic acid]
10 to 100	–	Cc1noc(C)c1-c1cnn2ccc(-c3nc(C(F)F)c(C(=O)O)s3)cc12 [Cpd 45, 4-(difluoromethyl)-2-[3-(3,5-dimethylisoxazol-4-yl)pyrazolo[1,5-a]pyridin-5-yl]thiazole-5-carboxylic acid]
100 to 500	100 to 500	Cc1noc(C)c1-c1cnn2ccc(-c3nc(C(F)(F)F)c(C(=O)O)o3)cc12 [Cpd 36, 2-[3-(3,5-dimethylisoxazol-4-yl)pyrazolo[1,5-a]pyridin-5-yl]-4-(trifluoromethyl) oxazole-5-carboxylic acid]
10 to 100	–	Cc1c(-c2cnn3ccc(-c4nc(C(=O)O)co4)cc23)cnn1C [Cpd 33, 2-[3-(1,5-dimethylpyrazol-4-yl)pyrazolo[1,5-a]pyridin-5-yl]oxazole-4-carboxylic acid]
0.01 to 10	0.01 to 10	CCn1nc(C)c(-c2cnn3ccc(-c4ncc(C(=O)O)s4)cc23)c1C [Cpd 29, 2-[3-(1-ethyl-3,5-dimethyl-pyrazol-4-yl)pyrazolo[1,5-a]pyridin-5-yl]thiazole-5-carboxylic acid]
0.01 to 10	–	Cc1nn(C)c(C)c1-c1cnn2ccc(-c3cc(C(=O)O)c(CC(C)C)o3)cc12 [Cpd 27, 2-isobutyl-5-[3-(1,3,5-trimethylpyrazol-4-yl)pyrazolo[1,5-a]pyridin-5-yl]furan-3-carboxylic acid]
0.01 to 10	–	CCc1oc(-c2ccn3ncc(-c4c(C)nn(C)c4C)c3c2)cc1C(=O)O [Cpd 26, 2-ethyl-5-[3-(1,3,5-trimethylpyrazol-4-yl)pyrazolo[1,5-a]pyridin-5-yl]furan-3-carboxylic acid]
0.01 to 10	0.01 to 10	Cc1nn(C(C)C)c(C)c1-c1cnn2ccc(-c3ncc(C(=O)O)s3)cc12 [Cpd 30, 2-[3-(1-isopropyl-3,5-dimethyl-pyrazol-4-yl)pyrazolo[1,5-a]pyridin-5-yl]thiazole-5-carboxylic acid]
10 to 100	10 to 100	Cc1noc(C)c1-c1cnn2ccc(-c3nc(C(=O)O)c(C)o3)cc12 [Cpd 34, 2-[3-(3,5-dimethylisoxazol-4-yl)pyrazolo[1,5-a]pyridin-5-yl]-5-methyl-oxazole-4-carboxylic acid]
0.01 to 10	–	Cc1noc(C)c1-c1cnn2ccc(-c3cc(C(=O)O)c(C4=CCOCC4)o3)cc12 [Cpd 41, 2-(3,6-dihydro-2H-pyran-4-yl)-5-[3-(3,5-dimethyl-isoxazol-4-yl)pyrazolo[1,5-a]pyridin-5-yl]furan-3-carboxylic acid]
10 to 100	–	Cc1noc(C)c1-c1cnn2ccc(-c3ccc(C(=O)O)o3)cc12 [Cpd 31, 5-[3-(3,5-dimethylisoxazol-4-yl)pyrazolo[1,5-a]pyridin-5-yl]furan-2-carboxylic acid]
0.01 to 10	–	Cc1noc(C)c1-c1cnn2ccc(-c3ncc(C(=O)O)s3)cc12 [Cpd 25, 2-[3-(3,5-dimethylisoxazol-4-yl)pyrazolo[1,5-a]pyridin-5-yl]thiazole-5-carboxylic acid]
0.01 to 10	0.01 to 10	Cc1noc(C)c1-c1cnn2ccc(-c3nc(C4CC4)c(C(=O)O)s3)cc12 [Cpd 37, 4-cyclopropyl-2-[3-(3,5-dimethylisoxazol-4-yl)pyrazolo[1,5-a]pyridin-5-yl]thiazole-5-carboxylic acid]
